Structures are written as SMILES.

Series [1] is described as follows: CBD extraction in brewed coffee beverage, pure CBD powder (HPLC). The format is physicochemical. An excerpt: To test the extraction efficiency of pure CBD powder in a coffee brewing process, the foil lids of each of several single-serving coffee containers adapted for use in a Keurig single-serving coffee machine were peeled back, a small depression was made in the top of the coffee grounds, and a measured quantity of CBD powder was placed in the depression. The foil lids were then resealed, and the containers were shaken for 30 seconds to disperse the CBD powder throughout the mass of coffee grounds. Each of the containers was then used in a Keurig single-serving coffee machine to brew either a 160 mL coffee beverage or a 300 mL coffee beverage. Mixing the CBD powder throughout the coffee grounds allowed the CBD to melt as hot water flowed downward from the top of the container and through the mass of coffee grounds during the coffee brewing process; relative to simply disposing the CBD powder in the bottom of the container, this reduces the amount of CBD extracted into the coffee beverage but improves the extent to which the CBD is mixed and dispersed with other chemical components extracted with the coffee, thereby inhibiting the formation of a CBD film in the brewed coffee beverage.
For each brewed coffee beverage, the beverage was poured into three separate bottles; a small sample was taken from each bottle and diluted in 10× (by volume) ethanol. This mixture was then shaken and centrifuged to remove coffee components and dissolve the CBD. The supernatant was removed from the centrifuged samples and measured by high-performance liquid chromatography using an Agilent Zorbax Eclipse XDB-C8 column. The mobile phase was a 1 mL/min gradient of 70:30 (vol/vol) acetonitrile:water to 80:20 (vol/vol) acetonitrile:water over 8 minutes. A 20 μL injection was used and the column was kept at 25° C. Absorbance was measured at 210 nm with a 5 nm bandwidth.

The conditions of series [2]: oral; cited from earlier work.
Series [3] can be described thus: CBD film formation on the surface of the brewed coffee beverage (visual). The format is physicochemical. The settings on record: Keurig-brewed coffee beverage, visual (FIG. 5A, 5B). From the text: This variability is expected due to the difference in particle size between the CBD powder and the ground coffee, which makes uniform dispersion of the CBD powder throughout the coffee grounds difficult.
Without wishing to be bound by any particular theory, the present inventors hypothesize that more concentrated droplets may be effective to increase the CBD extraction from F68 formulations.
This is because, in the use of Keurig single-serving coffee machines (and in conventional drip coffee makers), the water used is at or near its boiling point, which in any event is much higher than the melting point of CBD (66° C.), and the colloid droplets therefore cannot resist these high temperatures, causing coalescence of the CBD. In some embodiments, therefore, it may be desirable to brew the coffee beverage at a lower temperature, or to brew a conventional (non-CBD-containing) coffee beverage at typical near-boiling temperatures and then mix in a CBD colloid as described herein after the coffee beverage has cooled to below the melting point of CBD (but still at or above the temperature at which the consumer desires to consume the coffee, which on average is about 60° C.); it is to be expressly understood that such embodiments are within the scope of the present disclosure.

The mark [4] stands for this setting: CBD mass 50 mg, beverage volume 160 mL.
Where [5] appears, read: CBD mass 50 mg, beverage volume 300 mL.
[6] abbreviates: CBD mass 75 mg, beverage volume 160 mL.
[7] abbreviates: CBD mass 75 mg, beverage volume 300 mL.
The mark [8] stands for this setting: CBD mass 100 mg, beverage volume 160 mL.
[9] abbreviates: CBD mass 100 mg, beverage volume 300 mL.

On to `C=C(C)[C@@H]1CCC(C)=C[C@H]1c1c(O)cc(CCCCC)cc1O` [CBD, cannabidiol], for which the CBD extraction in series [1] (setting [4]) turned out to be 22.0 ± 9.6%; in series [1] (setting [5]), 42.1 ± 10.0%; in series [1] (setting [6]), 8.3 ± 6.2%; in series [1] (setting [7]), 15.8 ± 5.2%; in series [1] (setting [8]), 21.0 ± 14.8%; in series [1] (setting [9]) it was 11.9 ± 3.5%. Also, the CBD in beverage in series [1] (setting [4]) is given as 8.9 ± 4.4 mg; in series [1] (setting [5]), 20.3 ± 5.9 mg; in series [1] (setting [6]), 11.3 ± 4.8 mg; in series [1] (setting [7]), 11.9 ± 3.9 mg; in series [1] (setting [8]) it was 21.0 ± 14.8 mg; in series [1] (setting [9]), 11.9 ± 3.5 mg. Also, in series [2], the “Maximum theoretical bioavailability of orally administered CBD” value is 19%. In addition, in series [3], the “CBD film formation in the brewed coffee beverage” value was “large, thick films”.

Values taken from US20230248029A1, “Single-Serving Beverage Ingredient Containers Comprising Nanoparticulate Cannabidiol” (priority 2022, published 2023).
